In US5420335A, “Parenteral nutrients based on watersoluble glycerol bisacetoacetates” (priority 1993, dated 1995):
Where “and” joins values, the source holds several entries; their conditions need not be identical. Equal entries are not always repeated.

Tests used:
Assay type in all cases: in vivo, rat (male Sprague-Dawley)
[1] = Oral dietary nitrogen (food) intake of intravenously infused rats; conditions: for Dietary Nitrogen Intake: Table 1, Example 2
Procedure: (§1) Water was available ad libitum at all times.
(§2) The vein was then ligated dorsally to the catheter. […] Body weights were measured daily.
(§3) Infusate volume, oral food intake, body weight and urinary volume and total nitrogen were monitored daily for each rat. Infusate volume and food intake were determined by weighing the appropriate container at the start and end of each 24 hr. period. Measurements were recorded between 9 and 10 AM each day. At the end of the 7th day, rats were sacrificed, and blood and liver were harvested. Plasma was separated for measurement of free fatty acids, glucose, and ketone bodies. Liver was weighed and a sample was fixed in buffered formalin for gross histology.
(§4) The data were analyzed for significance by the one-way analysis of variance with repeated measures and comparing the effect of dietary treatment on each day. […] The null hypothesis was concluded invalid if p≤0.05. The analysis of variance was computed on a SAS statistical package.
(§5) This compound has an estimated energy density of 4.86 kcal/gram based on thermodynamic data from similar compounds.

[2] = Daily urinary nitrogen losses of intravenously infused rats
Procedure: as §1, §2, §3
The data were analyzed for significance by the one-way analysis of variance with repeated measures and comparing the effect of dietary treatment on each day. […] The null hypothesis was concluded invalid if p≤0.05. The analysis of variance was computed on a SAS statistical package. […]

[3] = Nitrogen balance (difference between intake and urinary output); conditions: for Nitrogen Balance, Difference Between Intake and Output: Table 3, Example 2
Procedure: as §1, §2, §3, §4
FIG. 3 illustrates the difference between oral intake and urinary nitrogen output which is termed nitrogen balance. It is representative of nitrogen balance because urinary nitrogen is the major route for body loss of nitrogen.
The experimental compound contains 8% nitrogen. With an infusion of 5.6 grams/day, infused nitrogen would provide approximately 450 mg more than that listed in the data tables. The final balance figures includes this number which is calculated based on the actual daily infusion rate for each rat.

[4] = Daily body weight of intravenously infused rats; conditions: Table 4, Example 2
Procedure: as §1, §2, §3, §4, §5

OC[C@H]1OC(O)[C@H](O)[C@@H](O)[C@@H]1O (some centres unmarked) [Glucose, glucose, reference compound]
Dietary Nitrogen Intake ([1]; day 1, individual rat): 111.86 MG N and 164.5 MG N and 486.92 MG N and 269.78 MG N | Dietary Nitrogen Intake ([1]; day 2, individual rat): 217.14 MG N and 85.54 MG N and 427.7 MG N and 144.76 MG N and 493.5 MG N and 526.4 MG N | Dietary Nitrogen Intake ([1]; day 3, individual rat): 151.34 MG N and 118.44 MG N and 559.3 MG N and 52.64 MG N and 250.04 MG N and 276.36 MG N and 631.68 MG N | Dietary Nitrogen Intake ([1]; day 4, individual rat): 131.6 MG N and 118.44 MG N and 572.46 MG N and 98.7 MG N and 394.8 MG N and 414.54 MG N and 526.4 MG N | Dietary Nitrogen Intake ([1]; day 5, individual rat): 236.88 MG N and 230.3 MG N and 407.96 MG N and 157.92 MG N and 223.72 MG N and 217.14 MG N and 559.3 MG N | Dietary Nitrogen Intake ([1]; day 6, average of 7 rats): 303 MG N | Dietary Nitrogen Intake ([1]; day 6, individual rat): 118.44 MG N and 105.28 MG N and 243.46 MG N and 342.16 MG N and 289.52 MG N and 375.06 MG N and 644.84 MG N | Dietary Nitrogen Intake ([1]; day 7, individual rat): 177.66 MG N and 157.92 MG N and 269.78 MG N and 526.4 MG N and 210.56 MG N and 473.76 MG N and 664.58 MG N | appetite depression ([1]; in words, Example 4): glucose induced better appetite depression than did the experimental compound | differences in dietary nitrogen intake among the three groups ([1]; in words, vs saline and other groups, 7 days): no differences in dietary nitrogen intake among the three groups | Urinary Nitrogen ([2]; Table 2, Example 2, day 1, average of 7 rats): 144 mg | Urinary Nitrogen ([2]; Table 2, Example 2, day 1, individual rat): 164.08 mg and 92.04 mg and 219.2 mg and 80.25 mg and 78.51 mg and 282.44 mg and 88.28 mg | Urinary Nitrogen ([2]; Table 2, Example 2, day 2, average of 7 rats): 146 mg | Urinary Nitrogen ([2]; Table 2, Example 2, day 2, individual rat): 131.95 mg and 74.58 mg and 311.7 mg and 147.44 mg and 42.51 mg and 224.09 mg and 88.37 mg | Urinary Nitrogen ([2]; Table 2, Example 2, day 3, average of 7 rats): 203 mg | Urinary Nitrogen ([2]; Table 2, Example 2, day 3, individual rat): 58.42 mg and 94.88 mg and 599.66 mg and 115.01 mg and 145.05 mg and 174.3 mg and 236.92 mg | Urinary Nitrogen ([2]; Table 2, Example 2, day 4, average of 7 rats): 129 mg | Urinary Nitrogen ([2]; Table 2, Example 2, day 4, individual rat): 109.72 mg and 80.52 mg and 274.22 mg and 93.31 mg and 78.6 mg and 145.43 mg and 124.12 mg | Urinary Nitrogen ([2]; Table 2, Example 2, day 5, average of 7 rats): 177 mg | Urinary Nitrogen ([2]; Table 2, Example 2, day 5, individual rat): 111.02 mg and 125.89 mg and 316.17 mg and 84.8 mg and 224.34 mg and 241.17 mg and 137.97 mg | Urinary Nitrogen ([2]; Table 2, Example 2, day 6, average of 7 rats): 178 mg | Urinary Nitrogen ([2]; Table 2, Example 2, day 6, individual rat): 114.67 mg and 65.54 mg and 227.23 mg and 135.24 mg and 118.95 mg and 333.85 mg and 252.42 mg | Urinary Nitrogen ([2]; Table 2, Example 2, day 7, average of 7 rats): 218 mg | Urinary Nitrogen ([2]; Table 2, Example 2, day 7, individual rat): 71.89 mg and 105.54 mg and 474.91 mg and 159.89 mg and 124.66 mg and 267 mg and 319.39 mg | Urinary Nitrogen ([2]; Table 8, Example 4, day 1, average of 9 rats): 128 mg | Urinary Nitrogen ([2]; Table 8, Example 4, day 1, individual rat): 252 mg and 114.8 mg and 82.1 mg and 75.4 mg and 22.4 mg and 158.4 mg and 133.9 mg and 148.3 mg and 164.3 mg | Urinary Nitrogen ([2]; Table 8, Example 4, day 2, average of 9 rats): 135 mg | Urinary Nitrogen ([2]; Table 8, Example 4, day 2, individual rat): 266.4 mg and 153.9 mg and 105 mg and 57 mg and 91.8 mg and 159.8 mg and 111 mg and 108.9 mg and 158 mg | Urinary Nitrogen ([2]; Table 8, Example 4, day 3, average of 9 rats): 106 mg | Urinary Nitrogen ([2]; Table 8, Example 4, day 3, individual rat): 151 mg and 89.1 mg and 107.2 mg and 68.4 mg and 118.3 mg and 131.9 mg and 135.4 mg and 59.8 mg and 91.8 mg | Urinary Nitrogen ([2]; Table 8, Example 4, day 4, average of 9 rats): 125 mg | Urinary Nitrogen ([2]; Table 8, Example 4, day 4, individual rat): 127.2 mg and 92.7 mg and 114.8 mg and 44.5 mg and 73.8 mg and 165.9 mg and 168.7 mg and 93.6 mg and 240.1 mg | Urinary Nitrogen ([2]; Table 8, Example 4, day 5, average of 9 rats): 131 mg | Urinary Nitrogen ([2]; Table 8, Example 4, day 5, individual rat): 127.8 mg and 97.7 mg and 93.7 mg and 45.9 mg and 84.8 mg and 236.3 mg and 166.4 mg and 123.4 mg and 203.2 mg | Urinary Nitrogen ([2]; Table 8, Example 4, day 6, average of 9 rats): 172 mg | Urinary Nitrogen ([2]; Table 8, Example 4, day 6, individual rat): 256.3 mg and 104.9 mg and 133.7 mg and 72.7 mg and 138.3 mg and 307.5 mg and 146.9 mg and 169.4 mg and 215.2 mg | Urinary Nitrogen ([2]; Table 8, Example 4, day 7, average of 9 rats): 162 mg | Urinary Nitrogen ([2]; Table 8, Example 4, day 7, individual rat): 118.3 mg and 106.6 mg and 175.8 mg and 22.6 mg and 145.6 mg and 384.8 mg and 126.8 mg and 162.4 mg and 212.8 mg | urinary nitrogen losses ([2]; in words, 7 days): Saline infused rats also lost more nitrogen in the urine than did glucose infused rats | nitrogen balance ([3]; Example 2, 7 days): around +100 mg/day | nitrogen balance ([3]; Example 4, infused nitrogen considered (FIG. 8)): over 200 mg/day | Nitrogen Balance, Difference Between Intake and Output ([3]; day 1, average of 7 rats): 59 MG N | Nitrogen Balance, Difference Between Intake and Output ([3]; day 1, individual rat): -52.22 MG N and 72.46 MG N and -54.7 MG N and 31.61 MG N and 33.35 MG N and 204.48 MG N and 181.5 MG N | Nitrogen Balance, Difference Between Intake and Output ([3]; day 2, average of 7 rats): 156 MG N | Nitrogen Balance, Difference Between Intake and Output ([3]; day 2, individual rat): 85.19 MG N and 10.96 MG N and 116 MG N and 69.7 MG N and 102.25 MG N and 269.41 MG N and 438.03 MG N | Nitrogen Balance, Difference Between Intake and Output ([3]; day 3, average of 7 rats): 88 MG N | Nitrogen Balance, Difference Between Intake and Output ([3]; day 3, individual rat): 92.92 MG N and 23.56 MG N and -40.36 MG N and -62.37 MG N and 104.99 MG N and 102.06 MG N and 394.76 MG N | Nitrogen Balance, Difference Between Intake and Output ([3]; day 4, average of 7 rats): 193 MG N | Nitrogen Balance, Difference Between Intake and Output ([3]; day 4, individual rat): 21.88 MG N and 37.92 MG N and 298.24 MG N and 5.39 MG N and 316.2 MG N and 269.11 MG N and 402.28 MG N | Nitrogen Balance, Difference Between Intake and Output ([3]; day 5, average of 7 rats): 113 MG N | Nitrogen Balance, Difference Between Intake and Output ([3]; day 5, individual rat): 125.86 MG N and 104.41 MG N and 91.79 MG N and 73.12 MG N and -0.62 MG N and -24.03 MG N and 421.33 MG N | Nitrogen Balance, Difference Between Intake and Output ([3]; day 6, average of 7 rats): 124 MG N | Nitrogen Balance, Difference Between Intake and Output ([3]; day 6, individual rat): 3.77 MG N and 39.74 MG N and 16.23 MG N and 206.92 MG N and 170.57 MG N and 41.21 MG N and 392.42 MG N | Nitrogen Balance, Difference Between Intake and Output ([3]; day 7, average of 7 rats): 137 MG N | Nitrogen Balance, Difference Between Intake and Output ([3]; day 7, individual rat): 105.77 MG N and 52.38 MG N and -205.13 MG N and 366.51 MG N and 85.9 MG N and 206.76 MG N and 345.19 MG N | nitrogen balance ([3]; in words, 7 days): positive nitrogen balances | Daily Body Weight ([4]; day 0, average of 7 rats): 258 Grams | Daily Body Weight ([4]; day 0, individual rat): 244 Grams and 228 Grams and 290 Grams and 250 Grams and 247 Grams and 281 Grams and 269 Grams | Daily Body Weight ([4]; day 1, average of 7 rats): 262 Grams | Daily Body Weight ([4]; day 1, individual rat): 238 Grams and 217 Grams and 329 Grams and 236 Grams and 244 Grams and 286 Grams and 284 Grams | Daily Body Weight ([4]; day 2, average of 7 rats): 257 Grams | Daily Body Weight ([4]; day 2, individual rat): 234 Grams and 211 Grams and 298 Grams and 233 Grams and 248 Grams and 293 Grams and 281 Grams | Daily Body Weight ([4]; day 3, average of 7 rats): 263 Grams | Daily Body Weight ([4]; day 3, individual rat): 229 Grams and 209 Grams and 337 Grams and 231 Grams and 266 Grams and 282 Grams and 286 Grams | Daily Body Weight ([4]; day 4, average of 7 rats): 259 Grams | Daily Body Weight ([4]; day 4, individual rat): 232 Grams and 207 Grams and 315 Grams and 226 Grams and 246 Grams and 295 Grams and 291 Grams | Daily Body Weight ([4]; day 5, average of 7 rats): 251 Grams | Daily Body Weight ([4]; day 5, individual rat): 232 Grams and 212 Grams and 278 Grams and 222 Grams and 240 Grams and 279 Grams and 294 Grams
